ChEMBL document CHEMBL3739288, “Dimeric Octaketide Spiroketals from the Jellyfish-Derived Fungus Paecilomyces variotii J08NF-1” (2015)
In brackets after ≈: the same amount, converted by molar mass.

What was measured:
Format in all cases: functional
[1] = test system: Staphylococcus aureus; assay: Antibacterial activity against Staphylococcus aureus SG511 after 24 hrs by broth microdilution method; conditions: SG511, 24 h
[2] = test system: Vibrio ichthyoenteri; assay: Antibacterial activity against Vibrio ichthyoenteri after 24 hrs by broth microdilution method
[3] = test system: Streptococcus iniae; assay: Antibacterial activity against Streptococcus iniae after 24 hrs by broth microdilution method

| Compound | MIC [1] [µg/mL] | MIC [2] [µg/mL] | MIC [3] [µg/mL] |
| --- | --- | --- | --- |
| CCCCCCCCC(=O)c1cccc2c1C=C(CCCCCCC)[C@]1(OCc3c(O)cccc31)O2 | > 40 | > 40 | > 40 |
| CN(C)[C@@H]1C(O)=C(C(N)=O)C(=O)[C@@]2(O)C(O)=C3C(=O)c4c(O)cccc4[C@@](C)(O)[C@H]3C[C@@H]12 [TETRACYCLINE] | 0.16 (≈ 0.36 µM) |  |  |
| CN(C)[C@@H]1C(O)=C(C(N)=O)C(=O)[C@@]2(O)C(=O)C3=C(O)c4c(O)cccc4[C@@](C)(O)[C@H]3[C@H](O)[C@@H]12 |  | 0.16 (≈ 0.347 µM) | 2.5 (≈ 5.43 µM) |

Other lines, results leading:

| MIC [1] [µg/mL] | MIC [2] [µg/mL] | MIC [3] [µg/mL] | Compound |
| --- | --- | --- | --- |
| > 40 | 40 (≈ 81.5 µM) | > 40 | CCCCCCCCC(=O)c1cccc2c1C=C(CCCCCCC)C1(OCc3c(O)cccc31)O2 (racemic) |
| > 40 | > 40 | > 40 | CCCCCCCCC(=O)c1cccc2c1C=C(CCCCCCC)[C@@]1(OCc3c(O)cccc31)O2 |
